Results published in patent US20250241894A1, “TREATMENT OF MENTAL DISORDERS” (GH RESEARCH IRELAND LIMITED, priority 2022, published 2025).

How the values were obtained:
human hepatocytes [1] = assay: Metabolism identification study in human hepatocytes; conditions: for Relative Proportion of compounds identified: 5-MeO-DMT free base 10 μM, up to 120 minutes
Experimental: For incubations with cryopreserved hepatocytes, the 2 mM stock solution was diluted with Leibovitz L-15 medium to a concentration of 20 μM or 2 μM. An aliquot (250 μL) of the 20 μM and 2 μM test substance formulations was added to each hepatocyte incubation sample (250 μL), as appropriate, so that the final test substance concentration in the incubations was 10 μM or 1 μM, respectively, and incubations contained less than 1% (v/v) solvent.
Incubations were performed at ca. 37° C. in a shaking water bath (total incubation volume 0.5 mL). For 1 μM, incubations were terminated after 0, 5, 10, 20, 30, 60 and 120 minutes, by the addition of ice-cold acetonitrile (0.5 mL).
The samples were vortex mixed and centrifuged at ca 13,000 rpm for 10 minutes at room temperature. Following centrifugation, the protein-free supernatants were removed for analysis.
Blank control incubations were carried out with Leibovitz L-15 medium in place of the test substance. No cells control samples were performed with Leibovitz L-15 medium in place of hepatocytes. Aliquots of the blank control samples were taken at 120 minutes, while no cells control samples were taken at 0, 30 and 120 for 1 μM incubations and at 0 and 120 minutes for 10 μM incubations.
All 1 μM incubations were performed in duplicate, while all 10 μM incubations were performed in singlet. All samples were stored at −80° C. (nominal) prior to analysis.
Prior to sample analysis a 100 μL aliquot of each sample was evaporated to near dryness under a steady stream of nitrogen at room temperature, and subsequently reconstituted in 50 μL of mobile phase A (0.1% formic acid in water). Each sample (0, 30 and 120-minute, 10 μM) was analysed using accurate mass LC-MS to determine relative levels of parent compound at each time-point, and determine the profile of metabolites formed. Appropriate blank and control samples were also analysed. The 10 and 60-minute, 10 μM incubation samples were not analysed and were stored at −80° C. (nominal).
Data were interrogated for the presence of metabolites by comparison of retention times with the test substance reference standard and based on the accurate masses of potential metabolites using screening software (UNIFI version 1.9.4), and user defined search parameters. To confirm a suspected metabolite, the measured accurate mass of the peak detected in the sample used for structural elucidation had to be within 5 ppm of the theoretical mass in order to confirm the molecular formula.

human plasma protein = assay: Binding of 5-MIAA to human plasma protein; format: in vitro ADME
Experimental: Binding to human plasma protein was determined. Reported are the unbound fraction (fu) for three replicates as well as the mean unbound fraction, the standard deviation and the mean % recovery (Table 8).

human hepatocytes [2] = assay: Metabolic stability in Hμrel human hepatocyte co-culture assay
[3] = rat; cited from earlier work
Water solubility = format: physicochemical
[4] = Pharmacokinetics of 5-MeO-DMT and bufotenine after a single inhaled dose; format: in vivo, human; conditions: 15 minutes after administration of 5-MeO-DMT
Experimental: Blood samples were obtained at 1; 2; 4; 7; 10; 15; 20; 30; 45 min and 1; 1.5; 2; 3; 4 hours after administration.
PK parameters were generated by algebraic analysis of the concentration versus time plots for each individual. The analysis was carried out using the software Phoenix WinNonlin 6.3.

Molecule: 5-Methoxyindole acetic acid [5-MIAA]
- Presence in subsequent assays (human hepatocytes [1]): predominant metabolite
- Plasma binding (mean fraction unbound) (human plasma protein): ~50%
- Time until removed from circulation for urinary excretion (human plasma protein; assuming glomerular filtration rate 90-120 ml/min): 1 to 2 h
- Remaining abundance (human hepatocytes [2]; after 72 h, hepatocytes, 1 and 10 μM): 75-82%
- Metabolic turnover (human hepatocytes [2]; hepatocytes): low metabolic turnover
- Disappearance with stromal cell controls (human hepatocytes [2]; stromal cells): no disappearance

Molecule: COc1ccc2[nH]cc(CC[N+](C)(C)[O-])c2c1 [5-MeO-DMT-N-oxide]
- Excretion [3]: rapid excretion
- Water solubility (Water solubility): water soluble
- Relative Proportion of compounds identified (human hepatocytes [1]): 1%

Molecule: COc1ccc2[nH]cc(CCO)c2c1 [5-methoxytryptophol, 5-Methoxyindole-3-ethanol]
- Relative Proportion of compounds identified (human hepatocytes [1]): 25%
- Presence in subsequent assays (human hepatocytes [1]): failed to detect
- Metabolic turnover (human hepatocytes [2]; hepatocytes): high metabolic turnover
- Time to complete disappearance (human hepatocytes [2]; hepatocytes): 24 h

Molecule: CN(C)CCc1c[nH]c2ccc(O[C@@H]3O[C@H](C(=O)O)[C@@H](O)[C@H](O)[C@H]3O)cc12 [Bufotenine glucuronide]
- Detection in the hepatocyte assay (human hepatocytes [1]): not detected

Molecule: CN(C)CCc1c[nH]c2ccc(O)cc12 [bufotenine, Bufotenine]
- Detection in human serum [4]: In no case is it detected
- Relative Proportion of compounds identified (human hepatocytes [1]): 5%
